Test results as given in ChEMBL document CHEMBL3045654, “Mechanisms of Low Susceptibility to Imidacloprid in a Laboratory Strain of the Small Brown Planthopper, Laodelphax striatellus FALLEN” (J Pestic Sci, 1997).

Experiments:
Laodelphax striatellus [1] = test: Drug penetration inLaodelphax striatella N (small brown planthopper) at 0.1 ng/insect treated topically after 1 hr; type: ADME, organism-based; settings: in vivo, topical_or_ocular
Laodelphax striatellus [2] = test: Drug penetration inLaodelphax striatella S (small brown planthopper) at 0.1 ng/insect treated topically after 1 hr; type: ADME, organism-based; settings: in vivo, topical_or_ocular
Laodelphax striatellus [3] = test: Insecticidal activity againstLaodelphax striatella S (small brown planthopper) treated topically after 24 hr; type: functional; settings: topical
Laodelphax striatellus [4] = test: Insecticidal activity againstLaodelphax striatella N (small brown planthopper) treated topically after 24 hr in presence of 20 ng/insect of […]; type: functional; settings: topical
Laodelphax striatellus [5] = test: Insecticidal activity againstLaodelphax striatella N (small brown planthopper) treated topically after 24 hr in presence of 2 ng/insect of tributylphosportrithioate; type: functional; settings: topical
Laodelphax striatellus [6] = test: Insecticidal activity againstLaodelphax striatella N (small brown planthopper) treated topically after 24 hr in presence of 40 ng/insect of piperonylbutoxide; type: functional; settings: topical
Laodelphax striatellus [7] = test: Insecticidal activity againstLaodelphax striatella N (small brown planthopper) treated topically after 24 hr; type: functional; settings: topical

## O=[N+]([O-])NC1=NCCN1Cc1ccc(Cl)nc1 [IMIDACLOPRID]
Laodelphax striatellus [1]
  Drug uptake: 20%
Laodelphax striatellus [2]
  Drug uptake: 20%
Laodelphax striatellus [3]
  LD50: 0.12 mg/kg
Laodelphax striatellus [4]
  LD50: 1.19 mg/kg
Laodelphax striatellus [5]
  LD50: 1.06 mg/kg
Laodelphax striatellus [6]
  LD50: 1.11 mg/kg
Laodelphax striatellus [7]
  LD50: 2.17 mg/kg
